Measured values as given in publication PMC3003687, “α-Galactosylceramide Analogs with Weak Agonist Activity for Human iNKT Cells Define New Candidate Anti-Inflammatory Agents” (PLoS ONE, 2010).

Legend:
human iNKT cell clones = test: Cytokine ELISA of human iNKT cell clones stimulated with glycolipid-pulsed CD1d-transfected HeLa cells; format: cell-based
Protocol: Capture ELISA assays were used for measurement of cytokine responses of human iNKT cells to αGalCer analogs. One day prior to the experiment, CD1d transfected HeLa cells were plated at 25×10^3 cells/well in 100 µL of medium in flat-bottom 96 well plates. Glycolipids were then added in 100 µL of medium to give final concentrations ranging from 0.05 to 10^4 nM. The APCs were incubated for approximately 18 hours with the glycolipids and then irradiated (10,000 Rad) and washed twice with PBS prior to addition of 25×10^3 iNKT cells well in 300 µL. Supernatants were harvested after 24 hours of co-culture and stored frozen at -20°C. After thawing, aliquots of the supernatants were assayed for specific cytokines by ELISA using capture and biotin-labeled detection antibody pairs specific for GM-CSF, IL-2, IL-4, IL-12p70 and IL-13 (all obtained from BD Biosciences), IFNγ (Thermo-Scientific) or IL-18 (MBL). Specific signals were developed using HRP- conjugated streptavidin (BD Biosciences) and Turbo TMB substrate (Thermo-Scientific). Supernatants were tested pure and/or diluted to give values within a quantitative linear standard curve generated with recombinant cytokines. Curves of dose-dependent cytokine responses and graphs were plotted using the Graphpad Prism Software. EC50 values were calculated using the function log (agonist) response with variable slope, and statistical analyses were carried out using the same software. To calculate concentration-dependent cytokine ratios, IL-4/IFNγ and IL-13/IFNγ ratios were calculated using cytokine values from which background levels (i.e. levels in cultures receiving DMSO vehicle alone) were subtracted. Ratios were calculated by dividing IL-4 or IL-13 concentrations in pg/mL by IFNγ concentration in ng/mL.

Human iNKT TCRs = Human iNKT TCRs (Homo sapiens, UniProt A0A075B6N4+A0A0B4J240+P15813); test: Equilibrium binding of analog-loaded hCD1d tetramers to iNKT cell clones
Text: For flow cytometric analysis, 6B11 (Vα24Jα18 specific) and mAbs specific for human CD3, CD4, CD8α, CD19, CD40L (CD154), CD56, CD69, GM-CSF & IFNγ were obtained from BD Biosciences. IL-4 and IL-13 specific mAbs were from Biolegend. Vα24 (C15) and Vβ11 (C21) specific mAb were from Immunotech. For antibody blocking in culture assays, non-specific isotype matched control, IL-2, IFNγ, IL-12p70 and CD40L specific mAbs without preservatives were obtained from BD Biosciences and IL-18 specific mAb from Medical & Biological Laboratories (MBL, Nagoya, Japan). Phycoerythrin and allophycocyanin labeled human CD1d tetramers were prepared in our laboratory as previously described. Curves of tetramer equilibrium binding constants and graphs were plotted using the Graphpad Prism Software (Version 5). KD values were calculated using the function non-linear fit (hyperbola, one binding site).
To characterize in more detail the iNKT cell TCR recognition of αGalCer analogs presented by human CD1d, we generated soluble and fluorescent tetrameric hCD1d molecules loaded with each of the glycolipid analogs. […] This was similar to the previously reported failure of mouse CD1d tetramer loaded with lysosulfatide to bind detectably to murine non-invariant and sulfatide specific NKT cells, despite a clear reactivity to this lipid upon presentation by APCs; [40]. […] To quantitate their binding avidities to iNKT cell TCRs, we used titration of analog-loaded hCD1d tetramers to determine equilibrium dissociation constants (KD), which are inversely proportional to avidity (Figure 3A and 3B).
Figure 3 Characterization of human iNKT cell TCR interactions with analog-loaded tetramers. (A) iNKT cell clones were stained with titrated amounts of hCD1d tetramers loaded with the indicated glycolipids (abbreviations as in legend to Figure 1), and the measured MFI values are plotted for selected glycolipids. (B) The equilibrium dissociation constants (KD, inversely proportional to TCR avidity) were determined as the concentrations of tetramers required to yield 50% of maximal binding. Data shown were obtained using the CD4^+ iNKT cell clone HDD3, and similar results (not shown) were obtained with a second CD4^+ clone (HDD11) and a CD4^−8^− double negative iNKT cell clone (HDE3). (C) Analysis of iNKT cell clones labeled with 20 nM of hCD1d tetramers which were loaded with variable excesses of analog to constant hCD1d (25 to 1000 fold molar excess of glycolipid to hCD1d protein). The measured MFI values were normalized as the percent of the maximum staining intensity obtained with each analog loaded tetramer. Data presented were generated with HDD3 (CD4+) iNKT cell clone, and similar results (not shown) were obtained with HDE3 (DN) clone.

human iNKT cells = details: cited from earlier work

Chain of Human iNKT TCRs (P15813 20-301): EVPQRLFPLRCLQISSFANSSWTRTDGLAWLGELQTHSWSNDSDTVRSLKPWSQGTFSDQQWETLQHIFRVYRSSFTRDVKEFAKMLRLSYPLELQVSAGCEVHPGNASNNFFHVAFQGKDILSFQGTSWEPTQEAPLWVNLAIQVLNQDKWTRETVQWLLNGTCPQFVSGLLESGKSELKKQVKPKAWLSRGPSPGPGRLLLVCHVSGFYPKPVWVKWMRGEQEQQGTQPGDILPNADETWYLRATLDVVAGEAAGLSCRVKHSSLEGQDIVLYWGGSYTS
Chain of Human iNKT TCRs (P01848 whole entry, further chain): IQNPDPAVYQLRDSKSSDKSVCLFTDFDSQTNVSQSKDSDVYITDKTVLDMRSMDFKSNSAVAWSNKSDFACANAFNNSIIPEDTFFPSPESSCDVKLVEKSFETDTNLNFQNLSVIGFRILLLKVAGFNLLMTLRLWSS
Chain of Human iNKT TCRs (A0A0B4J240 22-114): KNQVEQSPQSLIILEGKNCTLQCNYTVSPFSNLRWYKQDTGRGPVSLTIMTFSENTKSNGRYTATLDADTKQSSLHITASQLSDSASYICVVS
Chain of Human iNKT TCRs (P61769 21-119, further chain): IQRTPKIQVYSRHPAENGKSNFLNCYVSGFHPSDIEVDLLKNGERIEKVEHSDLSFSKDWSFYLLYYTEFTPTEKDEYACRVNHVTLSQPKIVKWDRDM
Chain of Human iNKT TCRs (A0A075B6N4 22-114): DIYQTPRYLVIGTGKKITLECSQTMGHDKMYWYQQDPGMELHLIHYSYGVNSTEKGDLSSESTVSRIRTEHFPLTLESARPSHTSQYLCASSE

SMILES: CCCCCCCCCCCCCCCCCCCCCCCC(=O)N[C@@H](CO[C@H]1O[C@H](CO)[C@H](O)[C@H](O)[C@H]1O)[C@H](O)[C@H](O)CCCCC [OCH]
- EC50 (human iNKT cell clones; Homo sapiens, iNKT, HDD3 clone, IL-4 levels did not reach a plateau): > 10 µM
- induction of IL-4 (human iNKT cell clones; all clones tested): minimal
- concentration required to induce detectable IL-13 production or weak IFNγ secretion (human iNKT cell clones; all iNKT cell clones tested): > 10 nM
- iNKT cell clone cytokine response / agonist activity (human iNKT cell clones; dose range, IFNγ, IL-4, IL-13, clones HDD3, HDD11, HDE3, HDA7): much weaker reactivity
- staining of iNKT cell clones by analog-loaded hCD1d tetramers (Human iNKT TCRs): only a weak staining intensity of a subset of iNKT cell clones tested
- ability to stimulate human iNKT cells (human iNKT cells): weak or no detectable ability to stimulate human iNKT cells
